Residues, ends and D or L forms follow the SMILES beside them.
Tests used:
Isolated Rat Heart = experiment: Inotropic function of normal isolated rat heart, Langendorff perfusion
From the text: Rat heart specimens were obtained surgically from white random-bred male rats weighing approximately 250 g. The hearts were established in culture using retrograde heart perfusion according to the Langendorff method performed with a standard oxygenated (95% O2 and 5% CO2) Krebs-Henseleit solution through a glass aorta cannula. The retroperfusion pressure forces the aortic valves shut. In this way, the oxygenated solution passed only through the coronary vasculature of the heart such that both ventricles remain effectively empty. Perfusion conditions: An average constant perfusate flow rate of 15 to 25 ml/min was maintained with a constant perfusate pressure of 80 cm H2 O. Pressure Measurements: A latex balloon catheter connected with a pressure transducer ([…], Sweden) was inserted into the left ventricle of the heart to measure parameters of the inotropic function of the heart. The intraventricle pressure variation curve for the left ventricle was recorded with a polygraph. Experimental Protocol: GE and VT served as the test substances. After a 30-minute adaptation of the heart to the organ culture perfusion conditions, a set of basal (control) measurements was taken, as described in (i) through (v) below. […] See GOODMAN […] THE PHARMACOLOGICAL BASIS OF THERAPEUTICS 160 (Goodman et al., eds., 7th ed. 1985), incorporated herein by reference in its entirety for all purposes. Each dose of each respective test or reference substance was tested on four different rat hearts. The inotropic functions of each of the four rat hearts were evaluated by measuring: (i) the systolic pressure in the left ventricle ([…] diastolic pressure in the left ventricle ([…] evolving pressure (Pev. =[…]); (iv) the maximal rate of increase of left ventricle pressure (+dp/dtmax mm Hg/sec); and (v) the maximal rate of decrease of left ventricle pressure (-dp/dtmax mm Hg/sec). In addition, the heart rate (HR) of each heart was determined from the pressure variation recordings made of the left ventricle pressure.

rats = experiment: Early ischemic myocardial arrhythmias after coronary artery ligation; type: in vivo; conditions: for Number of Ventricular Extrasystoles / Overall Duration of Ventricular Tachycardia: 30 min after coronary occlusion
Experimental: White random-bred male rats weighing 200 g were given light ether anesthesia and were then immobilized and artificially ventilated. The descending branch of the left coronary artery of each rat was ligated. Immediately following ligation, a test or control substance was administered to each rat through the catheterized femoral vein, and an ECG recording was initiated (standard lead II) and maintained for the next 30 minutes.
GE and VT served as test substances and were administered to animals in the respective test groups at doses of 0.1, 1.0, and 10.0 mg/kg. The β-adrenergic blocking agent, propranolol (Obzidan, Germed, Germany), served as the positive control substance and was administered intravenously to each animal in the positive control group at a dose of 0.5 mg/kg. Physiological saline served as the negative control substance and was administered intravenously to animals in the negative control group. Each dose of each test or control substance was tested separately on a group of nine animals.
The following parameters were evaluated based upon the ECG recordings: (i) the number of ventricular extrasystoles that occurred within a 30-minute observation period following coronary occlusion; (ii) the overall cumulative duration of ventricular tachycardias (i.e., the summation of duration of individual paroxysmal ventricular rhythm disturbances in seconds) occurring within the 30-minute observation period; and (iii) the overall duration (in seconds) of the ventricular fibrillations occurring within the 30-minute observation period. The data were processed electronically and statistical comparisons were made between the values obtained from the animals in the experimental test groups and those in the different respective control groups.

NCC(=O)N[C@@H](CCC(=O)O)C(=O)O [GE, L-Glycyl-L-Glutamic acid] (H-Gly-Glu-OH)
effect on inotropic function and heart rate of normal heart (Isolated Rat Heart; 10, 100, 1000 μg): neither GE nor VT had a significant effect
+dp/dtmax % of Basal Level (Isolated Rat Heart; dose 10 mg (mg = microgram)): 102%
+dp/dtmax Subst. Level (Isolated Rat Heart; dose 10 mg (mg = microgram)): 1750 mm Hg/sec
-dp/dtmax % of Basal Level (Isolated Rat Heart; dose 10 mg (mg = microgram)): 94%
-dp/dtmax Subst. Level (Isolated Rat Heart; dose 10 mg (mg = microgram)): 985 mm Hg/sec
HR % of Basal Level (Isolated Rat Heart; dose 10 mg (mg = microgram)): 99%
HR abs, Subst. Level (Isolated Rat Heart; dose 10 mg (mg = microgram)): 202 hb/min
Pdiast % of Basal Level (Isolated Rat Heart; dose 10 mg (mg = microgram)): 95%
Pdiast abs, Subst. Level (Isolated Rat Heart; dose 10 mg (mg = microgram)): 9 mm Hg
Pev % of Basal Level (Isolated Rat Heart; dose 10 mg (mg = microgram)): 102%
Pev Subst. Level (Isolated Rat Heart; dose 10 mg (mg = microgram)): 94 mm Hg
Psyst % of Basal Level (Isolated Rat Heart; dose 10 mg (mg = microgram)): 102%
Psyst abs, Subst. Level (Isolated Rat Heart; dose 10 mg (mg = microgram)): 104 mm Hg
+dp/dtmax % of Basal Level (Isolated Rat Heart; dose 100 mg (mg = microgram)): 100%
+dp/dtmax Subst. Level (Isolated Rat Heart; dose 100 mg (mg = microgram)): 1723 mm Hg/sec
-dp/dtmax % of Basal Level (Isolated Rat Heart; dose 100 mg (mg = microgram)): 99%
-dp/dtmax Subst. Level (Isolated Rat Heart; dose 100 mg (mg = microgram)): 1055 mm Hg/sec
HR % of Basal Level (Isolated Rat Heart; dose 100 mg (mg = microgram)): 100%
HR abs, Subst. Level (Isolated Rat Heart; dose 100 mg (mg = microgram)): 203 hb/min
Pdiast % of Basal Level (Isolated Rat Heart; dose 100 mg (mg = microgram)): 100%
Pdiast abs, Subst. Level (Isolated Rat Heart; dose 100 mg (mg = microgram)): 11 mm Hg
Pev % of Basal Level (Isolated Rat Heart; dose 100 mg (mg = microgram)): 99%
Pev Subst. Level (Isolated Rat Heart; dose 100 mg (mg = microgram)): 88 mm Hg
Psyst % of Basal Level (Isolated Rat Heart; dose 100 mg (mg = microgram)): 99%
Psyst abs, Subst. Level (Isolated Rat Heart; dose 100 mg (mg = microgram)): 99 mm Hg
+dp/dtmax % of Basal Level (Isolated Rat Heart; dose 1000 mg (mg = microgram)): 94%
+dp/dtmax Subst. Level (Isolated Rat Heart; dose 1000 mg (mg = microgram)): 1618 mm Hg/sec
-dp/dtmax % of Basal Level (Isolated Rat Heart; dose 1000 mg (mg = microgram)): 96%
-dp/dtmax Subst. Level (Isolated Rat Heart; dose 1000 mg (mg = microgram)): 980 mm Hg/sec
HR % of Basal Level (Isolated Rat Heart; dose 1000 mg (mg = microgram)): 102%
HR abs, Subst. Level (Isolated Rat Heart; dose 1000 mg (mg = microgram)): 198 hb/min
Pdiast % of Basal Level (Isolated Rat Heart; dose 1000 mg (mg = microgram)): 100%
Pdiast abs, Subst. Level (Isolated Rat Heart; dose 1000 mg (mg = microgram)): 10 mm Hg
Pev % of Basal Level (Isolated Rat Heart; dose 1000 mg (mg = microgram)): 91%
Pev Subst. Level (Isolated Rat Heart; dose 1000 mg (mg = microgram)): 85 mm Hg
Psyst % of Basal Level (Isolated Rat Heart; dose 1000 mg (mg = microgram)): 92%
Psyst abs, Subst. Level (Isolated Rat Heart; dose 1000 mg (mg = microgram)): 94 mm Hg
Number of Ventricular Extrasystoles (rats; 0.1 mg/kg i.v.): 25.22
Overall Duration of Ventricular Tachycardia (rats; 0.1 mg/kg i.v.): 38.67 s
Number of Ventricular Extrasystoles (rats; 1.0 mg/kg i.v.): 116.22
Overall Duration of Ventricular Tachycardia (rats; 1.0 mg/kg i.v.): 93.17 s
Number of Ventricular Extrasystoles (rats; 10.0 mg/kg i.v.): 47.78
Overall Duration of Ventricular Tachycardia (rats; 10.0 mg/kg i.v.): 51.78 s
effect on overall duration of ventricular tachycardias (rats; all of the tested doses): reduced the overall duration of ventricular tachycardias

Reference: patent US5972894A, “Peptides having potassium channel opener activity” (Cytran, Inc., priority 1997, dated 1999)
